Measured values from patent EP4008330A1, “COMBINED INHIBITION OF AMINO ACID TRANSPORTERS FOR INHIBITING HUMAN PLASMACYTOID DENDRITIC CELL ACTIVITY DURING AUTOIMMUNITY” (Max-Planck-Gesellschaft zur Förderung der Wissenschaften …, priority 2020, dated 2022).
Blank lines part the entries; values can stand above or below the compound they belong to.

Assays:
[1] = target: T1, System LAA transporters SLC7A5 and SLC3A2 (Homo sapiens, UniProt Q01650); test: Kynurenine uptake by pDC (flow cytometry), System LAA transporter activity; format: cell-based
T1 construct: freshly isolated pDC from PBMC of healthy donors and SLE patients also expressed System LAA transporters SLC7A5 and SLC3A2; endogenous in cells; host or cells: Primary plasmacytoid dendritic cells isolated from PBMC of human donors
T1 sequence (Q01650 whole entry): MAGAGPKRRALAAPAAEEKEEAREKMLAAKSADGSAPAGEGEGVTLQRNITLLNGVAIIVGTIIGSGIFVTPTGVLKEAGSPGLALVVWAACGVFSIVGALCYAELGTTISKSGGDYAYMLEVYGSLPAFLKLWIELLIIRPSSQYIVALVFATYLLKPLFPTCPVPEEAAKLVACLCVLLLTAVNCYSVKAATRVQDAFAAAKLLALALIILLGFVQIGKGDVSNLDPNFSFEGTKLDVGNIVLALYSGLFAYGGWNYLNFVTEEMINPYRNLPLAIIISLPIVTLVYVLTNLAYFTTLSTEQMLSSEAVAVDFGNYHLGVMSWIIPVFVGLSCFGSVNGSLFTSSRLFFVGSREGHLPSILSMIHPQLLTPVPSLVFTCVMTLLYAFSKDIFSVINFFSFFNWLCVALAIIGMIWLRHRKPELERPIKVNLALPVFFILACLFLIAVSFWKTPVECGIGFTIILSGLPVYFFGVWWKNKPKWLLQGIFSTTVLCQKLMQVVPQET
T1 sequence (P08195 103-630 partner limits assumed): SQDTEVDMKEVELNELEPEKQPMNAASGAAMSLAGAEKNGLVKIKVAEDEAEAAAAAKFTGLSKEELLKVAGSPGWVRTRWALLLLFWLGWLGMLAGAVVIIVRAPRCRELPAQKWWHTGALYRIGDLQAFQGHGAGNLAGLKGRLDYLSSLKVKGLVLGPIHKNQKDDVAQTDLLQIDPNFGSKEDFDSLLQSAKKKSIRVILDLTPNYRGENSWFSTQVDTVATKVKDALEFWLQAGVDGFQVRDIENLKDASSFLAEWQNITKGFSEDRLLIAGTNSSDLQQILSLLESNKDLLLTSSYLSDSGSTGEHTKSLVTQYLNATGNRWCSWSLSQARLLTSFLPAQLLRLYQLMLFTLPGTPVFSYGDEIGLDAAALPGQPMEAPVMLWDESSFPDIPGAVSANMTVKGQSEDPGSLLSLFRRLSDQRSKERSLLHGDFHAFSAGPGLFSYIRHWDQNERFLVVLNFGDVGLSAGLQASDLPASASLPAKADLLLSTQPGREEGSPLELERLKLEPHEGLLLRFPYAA
Procedure: (§1) Briefly, stained cells were incubated in HBSS (Gibco) with 200 µM kynurenine (Sigma) for 4 min at 37°C.
To assess whether IL-3-induced expression of SLC7A5 and SLC3A2 allowed the assembly of a functional System LAA transporter, we used a flow cytometry-based assay that measures the ability of cells to take up kynurenine, a naturally fluorescing molecule that is transported into cells via SLC7A5; this can be used as a proxy measurement of large neutral amino acid (LNAA) uptake. […] Of interest, freshly isolated pDC from PBMC of healthy donors and SLE patients also expressed System LAA transporters SLC7A5 and SLC3A2 (Figure 5D) and furthermore pDC from healthy donors had the ability to take up kynurenine immediately ex vivo, a process that was blocked by BCH (Figure 5E).

[2] = test system: pDC; test: Combined kynurenine uptake and pS6 (S235/236) in pDC (double positive cells); format: cell-based, human
Source text: To confirm that functional System LAA transport is a prerequisite for mTORC1 activation in response to CpG-A, the effects of IL-3 and CpG-A were examined on combined measurements of kynurenine uptake, S6 (S235/236) phosphorylation and cytokine production.

[3] = test system: pDC; test: Intracellular IFNα and TNFα production by CpG-A-stimulated isolated pDC (flow cytometry); format: cell-based, human
Source text: PBMC from buffy coats from healthy blood donors were isolated by density gradient centrifugation using SepMate tubes and Lymphoprep (both […] Technologies). pDC were negatively selected from PBMC using the plasmacytoid dendritic cell isolation kit II (Miltenyi Biotec). Buffy coats were kindly provided by the Institute for Transfusion Medicine and Gene Therapy, Medical Center - University of Freiburg (donor consent, anonymized). Skin samples of lupus patients were obtained through the biobank of the SFB829 (Z4 project) with informed consent from all the subjects and ethical approval obtained from the Ethics Committee at the University of Cologne (votes 12-163 and 19-1146). SLE PBMC were provided by ImmRheum biobank in Freiburg, a project that was approved by the local ethical committee (votes 507/16 and 624/14). All patients who provided blood to the biobank had provided written informed consent.
(§2) Cells were stimulated with 5 µM CpG-A ODN (ODN2216, InvivoGen) for times indicated.
The following fluorochrome-conjugated monoclonal antibodies were used for staining cell surface markers: IL-3Ra (CD123) (Miltenyi Biotec, clone AC145), HLA-DR (BD Bioscience, clone G46-6), CD116 (BD Bioscience, clone hGMCSFR-M1), CD4 (Biolegend, clone A161A1). […] Isolated pDC staining was performed in 0.5% BSA in PBS for 10 min at RT, dead cells were excluded with the LIVE/DEAD Fixable Near-IR or Aqua Dead Cell Stain Kits (Thermo scientific). Unspecific binding was blocked with FcR blocking reagent (Miltenyi). The following fluorochrome-conjugated Abs were used for intracellular staining: IFNα (Miltenyi, LT27:295), TNFα (BioLegend, clone Mab11), pS6(S235/236; CST, clone D57.2.2e), pSTAT5 (Y694; CST, clone C71E5). After surface staining, cells were fixed using Fixation/Permeabilization Kit (BD Bioscience) for 20 min at 4°C, and then additionally permeabilized in Perm/Wash solution for 30 min at 4°C, after which cells were incubated with antibodies against intracellular proteins, at previously determined antibody dilutions, for 30 min at RT. […] Cycloheximide (Sigma) at 100 µg/ml was used as a positive control for protein synthesis inhibition.

[4] = test system: mTORC1; test: S6 (S235/236) phosphorylation in pDC by flow cytometry, as measure of mTORC1 activity; format: cell-based, human; settings: pDC in IL-3 with inhibitor, stimulated with CpG-A; 20 nM RAP, 1µM AZD, BAR
Procedure: as §2
(§3) Isolated pDC staining was performed in 0.5% BSA in PBS for 10 min at RT, dead cells were excluded with the LIVE/DEAD Fixable Near-IR or Aqua Dead Cell Stain Kits (Thermo scientific). Unspecific binding was blocked with FcR blocking reagent (Miltenyi). The following fluorochrome-conjugated Abs were used for intracellular staining: IFNα (Miltenyi, LT27:295), TNFα (BioLegend, clone Mab11), pS6(S235/236; CST, clone D57.2.2e), pSTAT5 (Y694; CST, clone C71E5). After surface staining, cells were fixed using Fixation/Permeabilization Kit (BD Bioscience) for 20 min at 4°C, and then additionally permeabilized in Perm/Wash solution for 30 min at 4°C, after which cells were incubated with antibodies against intracellular proteins, at previously determined antibody dilutions, for 30 min at RT. […] Cycloheximide (Sigma) at 100 µg/ml was used as a positive control for protein synthesis inhibition.

[5] = test system: STAT5 (Y694); test: STAT5 (Y694) phosphorylation in pDC by flow cytometry; format: cell-based, human; settings: IL-3-induced; pDC with inhibitor o/n
Procedure: as §2, §3

[6] = test system: SLC7A5 and SLC3A2; test: SLC7A5 and SLC3A2 mRNA expression in pDC (PrimeFlow RNA); settings: pDC in IL-3 and inhibitor o/n, then CpG-A 5h
[7] = test system: SLC7A11; test: SLC7A11 mRNA expression in pDC (PrimeFlow RNA); format: cell-based, human; settings: pDC in IL-3 and inhibitor o/n; for SLC7A11 and SLC7A5 mRNA expression (double positive cells): then CpG-A 5h (Figure 12B)
Procedure: as §2, §1

[8] = test system: pDC; test: Live cells / cell death of isolated pDC (LIVE/DEAD stain); format: cell-based
Procedure: as §2, §3

[9] = test system: pDC; test: Lactate levels in pDC culture medium (Cedex Bio Analyzer); format: cell-based, human; settings: pDC in IL-3, CpG-A and inhibitor for 10 h
Procedure: as §2
Glucose and lactate were measured in cell culture supernatants using the Cedex Bio Analyzer (Roche) and data presented as mmol/L.

[10] = test system: pDC; test: De novo protein synthesis in pDC, incorporation of puromycin analogue (OPP); format: cell-based, human; settings: pDC in IL-3, CpG-A for 10 h and inhibitor
[11] = cultured pDC +/- IL-3, +/- CpG-A, 200 µM kynurenine 4 min, 10 mM BCH at time of uptake
[12] = pDC in IL-3 and inhibitor o/n, then CpG-A 5h, 20 nM RAP, 250 nM TOR, 10µM HPA, 1µM AZD, BAR, 5 µM ERA, 100 or 200 µM SAZ
[13] = pDC in IL-3 and inhibitor o/n, then CpG-A 5h, 20 nM RAP, 10µM HPA, 1µM AZD, BAR, 5 µM ERA, 100 or 200 µM SAZ
[14] = pDC in IL-3, CpG-A and inhibitors for 5h after o/n rest (Figure 4E), 10µM HPA, 1 µM oligomycin

- kynurenine uptake ([1]; pDC from healthy donors immediately ex vivo, 10 mM BCH): blocked
SMILES: NC1(C(=O)O)CC2CCC1C2 (centres unmarked) [BCH, 2-Aminobicyclo[2.2.1]heptane-2-carboxylic acid]
- kynurenine uptake [1, 11]: abrogated transport of kynurenine in all of the conditions

- kynurenine uptake [1, 11]: reductions
SMILES: Cc1cc(Nc2nc(N[C@@H](C)c3ncc(F)cn3)ncc2Cl)n[nH]1 [AZD, AZD1480]
- kynurenine uptake and pS6 (S235/236) expression (cells with high rates of kynurenine uptake and mTORC1 activity) ([2]; pDC in GM-CSF and inhibitor o/n, then CpG-A 5h (Figure 8)): inhibited
- IFNα production [3, 12]: lost and decrease
- TNFα production [3, 13]: decrease
- IFNα production ([3]; pDC maintained in GM-CSF and inhibitor o/n, then CpG-A 5h (Figure 8)): inhibited
- pS6 (S235/236) expression [4]: reductions
- pSTAT5 (Y694) expression [5]: inhibited
- SLC7A5 and SLC3A2 mRNA expression [6]: significantly inhibited
- SLC7A11 and SLC7A5 mRNA expression (double positive cells) [7]: lost expression of both transporters

SMILES: CCOc1ccccc1-n1c(C(C)N2CCN(C(=O)COc3ccc(Cl)cc3)CC2)nc2ccccc2c1=O (centres unmarked) [ERA, erastin]
- live cells (cell death) [8]: absence of appreciable cell death

SMILES: O=C(O)c1cc(/N=N/c2ccc(S(=O)(=O)Nc3ccccn3)cc2)ccc1O [Sulfasalazine, sulfasalazine]
- kynurenine uptake and pS6 (S235/236) expression (cells positive for both) ([2]; pDC in IL-3 and inhibitor o/n, then CpG-A 5h): reductions
- IFNα production [3, 12]: inhibited
- TNFα production [3, 13]: inhibited

SMILES: CCS(=O)(=O)N1CC(CC#N)(n2cc(-c3ncnc4[nH]ccc34)cn2)C1 [BAR, baricitinib]
- live cells (cell death / cell survival) ([8]; BAR 25 to 100 nM, alone or with SAZ, IL-3 o/n, then CpG-A 5h (Figure 14C)): increased cell death

SMILES: CCC(=O)N1CCN(c2ccc(-n3c(=O)ccc4cnc5ccc(-c6cnc7ccccc7c6)cc5c43)cc2C(F)(F)F)CC1 [TOR, torin1]
- IFNα production [3, 12]: similar, although less pronounced effect
- lactate levels in medium [9]: decline in CpG-A-induced lactate release
- SLC7A11 mRNA expression ([7]; then CpG-A 5h): inhibited
- SLC7A11 and SLC7A5 mRNA expression (double positive cells) [7]: similar, although less pronounced effect

SMILES: CC(C)[C@H]1CC[C@@]2(CO2)[C@H]2C(=O)OCC(C(=O)O)=C[C@H]12 [HPA, heptelidic (koningic) acid]
- protein synthesis measured by incorporation of puromycin analogue (OPP) [10]: caused reductions in overall protein synthesis
- IFNα production [3, 12]: reductions
- TNFα production [3, 13]: reductions
- lactate levels in medium [9]: reduced secreted lactate levels to below those in cultures of unstimulated pDC

SMILES: CC[C@H]1/C=C/C=C/C[C@@H](C)[C@H](O)[C@@](C)(O)C(=O)[C@@H](C)[C@H](O)[C@@H](C)C(=O)[C@@H](C)[C@H](O)[C@@H](C)/C=C/C(=O)O[C@@H]2[C@H](C)[C@H](CC1)O[C@]1(CC[C@H](C)[C@H](C[C@@H](C)O)O1)[C@H]2C [OLI, oligomycin]
- IFNα production [3, 14]: inhibited IFNα production to approximately the same extent as HPA
- TNFα production [3, 14]: no effect
